In patent publication US9630964B2, “Fluoro-9-methyl-β-carbolines” (priority 2013, dated 2017):

Tests used:
[1] = system: outer hair cells (OHC) in the inner ear; experiment: Immunohistochemical experiments: dying of outer hair cells after acoustic trauma; assay type: in vivo; settings: guinea pig, intratympanic, total 0.105 mg per ear, day 14
Description: To induce an acoustic trauma, guinea pigs were anesthetized with 60 mg/kg ketamine and 8 mg/kg xylazine. Then Bepanten ointment (Bayer) was administered to the eyes and the animal was put in a soundproof chamber. A calibrated speaker was placed directly above the head of the animal, wherein it was set to emit a half octave band, centered around 8 kHz, with a volume of 110 dB for duration of 30 minutes.
The thermosensitive, liquid mixture was administered under view by a Hamilton syringe directly in front of the round window membrane of the middle ear (10 μL). The first dose 6-fluoro-9-methyl-β-carboline (e.g. 0.07 mg) was administered one hour after the acoustic trauma in a concentration of 0.007 mg/μL and the second dose 6-fluoro-9-methyl-β-carboline (0.035 mg in a volume of 5 μL) on day 3. Here, only one ear per animal was treated, while the second ear served as intra-individual control. The control here is particularly abbreviated to “contr.”. In comparative experiments it was found, that administration of just an active agent vehicle (hydrogel) has no effect in comparison to a fully untreated ear. For each active agent (including the controls) four guinea pigs were examined.
On day 14 after the acoustic trauma the region of the ear was dissected so that it contained the cochlea. […] In this way the sound induced damage can be localized and quantified. […]

quotient Bax/Bcl2 = experiment: Quantitative RT-PCR, quotient Bax/Bcl2 (apoptosis marker) in SH-SY5Y cells; assay type: cell-based, human; settings: 30 μM each, except after 2-day exposition
Description: (§1) SH-SY5Y cell lines, which were provided by the institute of human genetics of university hospital Eppendorf and which they in turn received from Braunschweig resource center, were used again for the RT-PCR experiments (reverse transcriptase polymerase chain reaction) carried out for this purpose.
The cells were incubated in MEM (Minimum essential medium, Life Technologies) with 10% FCS (fetal calf serum, Biochrom AG) and penicillin/streptomycin (Biochrom AG). The cells were seeded with a density of 1×10^5 cells/cm^2 in 25 cm^2 cell culture bottles (Falcon, cell culture treated) with 5 mL medium. […]
The RNA-isolation was done with the HighPure RNA Isolation kit of the company Roche. […] The concentration of RNA was measured with nanoDrop spectrometer and the RNA integrity was determined with the aid of the Bioanalyzer 2100 (Agilent). […]
After the reaction, this run was diluted 1:4 and thereof 2 μL per each quantitative RT-PCR were used. This was performed in a LightCycler 480 under standard conditions in the SybrGreen format with annealing temperatures determined for each primer individually. […]
The specificity was verified by melting curve analysis and subsequent gel electrophoresis. For each PCR the PCR efficiency and the Cq value was determined by the program LinRegPCR and these were used in further calculations. […]

[2] = system: human neuroblastoma cells (SH-SY5Y); experiment: Differentiation of human neuroblastoma cells (SH-SY5Y), morphological examination; assay type: cell-based; settings: SH-SY5Y
Description: The SH-SY5Y cell line was obtained from the German collection of microorganisms and cell cultures—DSMZ, Braunschweig. The cells were cultivated in MEM (Minimum essential medium, Life Technologies) with 10% FCS (fetal calf serum, Biochrom AG) and penicillin/streptomycin (Biochrom AG). For morphological examinations the cells were seeded in a density of 1.5×10^4 cells/cm^2 in 24-well plates (Falcon, cell culture treated) with 1 mL medium. A stock solution of 10 mmol/L of the compound according to the invention 6-fluoro-9-methyl-β-carboline was prepared in 50% ethanol and sterile filtered. Five hours after seeding of the cells the compound according to the invention 6-fluoro-9-methyl-β-carboline was added in the corresponding amount to the medium achieving the desired final concentration. The medium was changed once a week. The cells were regularly microscopically examined. Microscopic images were taken at BZ Keyence 10 with a 10×lens and 4×digital zoom. An automatic contrast enhancement was made with the program BZ Analyzer.

[3] = system: DKK1 (Dickkopf-related protein 1); experiment: Quantitative RT-PCR, relative gene expression of DKK1 in SH-SY5Y cells; assay type: cell-based, human
Description: as §1
The cells were incubated in MEM (Minimum essential medium, Life Technologies) with 10% FCS (fetal calf serum, Biochrom AG) and penicillin/streptomycin (Biochrom AG). The cells were seeded with a density of 1×10^5 cells/cm^2 in 25 cm^2 cell culture bottles (Falcon, cell culture treated) with 5 mL medium. Stock solutions of 10 mmol/L of compounds 9-methyl-β-carboline (AC-002 or 9MβC) and 6-fluoro-9-methyl-β-carboline (AC-102 or 6F9MβC), respectively were prepared in distillated water and sterile filtered. One day after the cell seeding the compounds were added in corresponding amounts (5-55 μL) to reach final concentration in the medium of 10 μM, 20 μM and 30 μM for 6F9MβC and 30 μM, 50 μM and 70 μM for 9MβC. The references received only the corresponding amount of solvent (distilled water). The medium was changed once a week.
The cells were regularly microscopically examined and harvest after 2, 7 and 14 days of incubation time, washed with PBS and immediately frozen at −80° C.
The RNA-isolation was done with the HighPure RNA Isolation kit of the company Roche. This isolation includes a DNaseI digestion. The concentration of RNA was measured with nanoDrop spectrometer and the RNA integrity was determined with the aid of the Bioanalyzer 2100 (Agilent). By using random hexamer primers, protector RNA inhibitor (Roche) and transcriptor reverse transcriptase (fermentas), 300 ng RNA were transcribed into cDNA per each sample.
After the reaction, this run was diluted 1:4 and thereof 2 μL per each quantitative RT-PCR were used. This was performed in a LightCycler 480 under standard conditions in the SybrGreen format with annealing temperatures determined for each primer individually. If possible, exon spanning primers were used.
The specificity was verified by melting curve analysis and subsequent gel electrophoresis. For each PCR the PCR efficiency and the Cq value was determined by the program LinRegPCR and these were used in further calculations. B2M (β2-microglobulin) was identified from multiple reference genes to be suitable for examination conditions. All results are results relative to the corresponding reference conditions, at which only solvent was administered for the specified period of time (i.e. 2 days, 7 days or 14 days). In FIGS. 5A to 5I are also relative gene expressions (relative to reference conditions) presented. Here, the 2-day exposition is presented in light grey, the 7-day exposition in dark grey and the 14-day exposition in black. Every measured value from FIGS. 5A-5I represents a mean value of 3 independent biologic samples.
Analogous to example 4 RT-PCR experiments with the inventive active agent 7-fluoro-9-methyl-β-carboline (7F9MβC) were also performed for some important cellular factors. The experimental procedure was here identical to the experiments with 6-fluoro-9-methyl-β-carboline and 9-methyl-β-carboline. Here the same (like for 6F9MβC) final concentrations of 30 μM, 50 μM and 70 μM 7F9MβC for the culture medium were employed. The examined factors were BDNF (brain-derived neurotrophic factor), Lif (Leukemia inhibitory factor), DRD2S (short variant of dopamine receptor subtype 2) as well as DKK1 (Dickkopf-related protein 1). […]

Cn1c2ccc(F)cc2c2ccncc21 [6F9MβC, 6-fluoro-9-methyl-β-carboline]
acoustic trauma-induced dying of outer hair cells [1]: could be prevented | quotient Bax/Bcl2 compared to 9MβC (quotient Bax/Bcl2): significantly lower | concentration at which a comparable differentiation of the tested cells is observed ([2]; 15 days incubation): 30 µM | effect on proliferation and morphology of cells ([2]; 15 days, increasing concentrations, pronounced at 30 μM vs 0 μM): inhibits proliferation of cells and induces sprouting of slim extensions as well as a change in size and shape of the cells | DKK1 expression compared to the highest concentration of 9MβC ([3]; 10 μM 6F9MβC): comparable or even higher | DKK1 expression relative to expression induced by 9MβC ([3]; 30 μM each, 14-day exposition): comparable
